These results are taken from ChEMBL document CHEMBL1151233, “Biotransformation of imperatorin by Aspergillus flavus” (J Nat Prod, 2004).

Structures are written as SMILES.

Data set [1] has as its system Hepatitis B virus. Briefly: Antiviral activity against hepatitis B virus infected in human MS-G2 cells assessed as inhibition of surface antigen production at 50 uM after 48 hrs. Type of data set: functional. Particulars: MS-G2, 48 h.
The test system of data set [2] is Hepatitis B virus. Briefly: Antiviral activity against hepatitis B virus infected in human MS-G2 cells assessed as inhibition of e-antigen production at 50 uM after 48 hrs. It counts as functional. Particulars: MS-G2, 48 h.
Data set [3] has as its system Hepatitis B virus. Briefly: Antiviral activity against hepatitis B virus infected in human MS-G2 cells assessed as inhibition of surface antigen production at 100 uM after 48 hrs. Particulars: MS-G2, 48 h. It counts as functional.
Data set [4] relates to Hepatitis B virus. Briefly: Antiviral activity against hepatitis B virus infected in human MS-G2 cells assessed as inhibition of e-antigen production at 100 uM after 48 hrs. Particulars: MS-G2, 48 h. It counts as functional.
Data set [5] in a line: Cytotoxicity against human MS-G2 cells at 10 uM by MTT assay. It counts as cell-based. Particulars: read-out: INH.
Data set [6] relates to Hepatitis B virus. Briefly: Antiviral activity against hepatitis B virus infected in human MS-G2 cells assessed as inhibition of surface antigen production at 10 uM after 48 hrs. Type of data set: functional. The conditions noted are these: MS-G2, 48 h.
Data set [7] can be described thus: Cytotoxicity against human MS-G2 cells at 50 uM by MTT assay. The conditions noted are these: read-out: INH. Type of data set: cell-based.
Data set [8] deals with Hepatitis B virus. Briefly: Antiviral activity against hepatitis B virus infected in human MS-G2 cells assessed as inhibition of e-antigen production at 10 uM after 48 hrs. Particulars: MS-G2, 48 h. It counts as functional.
Data set [9] in a line: Cytotoxicity against human MS-G2 cells at 100 uM by MTT assay. The conditions noted are these: read-out: INH. It counts as cell-based.

Regarding `C/C(=C/COc1c2occc2cc2ccc(=O)oc12)C(=O)O`, the inhibition at 50 µM in [1] turned out to be 12.3%; in data set [2], 1.6%. Moreover, the inhibition at 100 µM amounted to 27% in data set [3] and 12.5% in [4]. Besides, the cytotoxicity at 10 µM in [5] is 11.7%. The inhibition at 10 µM came to 13.2% in [6] and 0.7% in data set [8]. Also, the cytotoxicity at 50 µM in data set [7] stood at 18.4%. Further, the cytotoxicity at 100 µM in [9] worked out at 14.7%.

On to `C/C(=C\COc1c2occc2cc2ccc(=O)oc12)CO`, for which the inhibition at 50 µM in [1] worked out at 37.4%; in data set [2], 16.5%. For the same compound, the inhibition at 100 µM in data set [3] was found to be 61.3%; in data set [4] it was 29%. Besides, the cytotoxicity at 10 µM in data set [5] stood at 13%. Also, the inhibition at 10 µM turned out to be 20.9% in [6] and 8% in data set [8]. In addition, the cytotoxicity at 50 µM in data set [7] was determined as 3.4%. Moreover, in data set [9], the cytotoxicity at 100 µM amounted to 10.3%.

Take `CC(C)=CCOc1c2occc2cc2ccc(=O)oc12` [PENTOSALEN]: the values for the inhibition at 50 µM in data set [1] and in data set [2] were 55.3% and 22.5%, respectively. Also, the inhibition at 100 µM in data set [3] was 68.4%; in data set [4], 34.3%. Further, the cytotoxicity at 10 µM in data set [5] is 11%. The inhibition at 10 µM came to 14.9% in [6] and 3.8% in data set [8]. For the same compound, in data set [7], the cytotoxicity at 50 µM came to 8.9%. Further, in data set [9], the cytotoxicity at 100 µM was -8.7%.

Take `O=c1ccc2cc3ccoc3c(O)c2o1` [XANTHOTOXOL]: the inhibition at 50 µM in data set [1] was 10.5%; in [2], 2.7%. Moreover, the inhibition at 100 µM in [3] is 19.8%; in data set [4], 0.7%. The cytotoxicity at 10 µM in [5] is 7.8%. Further, the inhibition at 10 µM in data set [6] is 5.2%; in data set [8] it was -5%. For the same compound, the cytotoxicity at 50 µM in [7] came out at 12.2%. In data set [9], the cytotoxicity at 100 µM came out at 17%.

In the case of `C/C(=C/COc1c2occc2cc2ccc(=O)oc12)CO` [Z-trichoclin], the inhibition at 50 µM was 34.6% in [1] and 11.9% in data set [2]. For the same compound, the values for the inhibition at 100 µM in data set [3] and in [4] were 45.2% and 12.4%, respectively. In addition, the cytotoxicity at 10 µM in [5] turned out to be 18%. Besides, the results for the inhibition at 10 µM in data set [6] and in [8] were 13.6% and 8.2%, respectively. Besides, the cytotoxicity at 50 µM in [7] was found to be 15%. The cytotoxicity at 100 µM in [9] turned out to be 12.6%.
